{"source": "paper PMC10590383", "about": "“Repurposing conformational changes in ANL superfamily enzymes to rapidly generate biosensors for organic and amino acids” (Nature Communications, 2023)", "assay_type_in_all_cases": "biochemical", "settings_in_all_cases": "n = 3", "key": {"GECFINDER-Phe3": {"target": "T1, GECFINDER-Phe3 (Aneurinibacillus migulanus, UniProt P0C061)", "T1 construct": "gene grsA; GrsA-PheA-PCP; cpEGFP inserted in hinge B, linkers VF-QS", "T1 sequence (P0C061 1-617)": "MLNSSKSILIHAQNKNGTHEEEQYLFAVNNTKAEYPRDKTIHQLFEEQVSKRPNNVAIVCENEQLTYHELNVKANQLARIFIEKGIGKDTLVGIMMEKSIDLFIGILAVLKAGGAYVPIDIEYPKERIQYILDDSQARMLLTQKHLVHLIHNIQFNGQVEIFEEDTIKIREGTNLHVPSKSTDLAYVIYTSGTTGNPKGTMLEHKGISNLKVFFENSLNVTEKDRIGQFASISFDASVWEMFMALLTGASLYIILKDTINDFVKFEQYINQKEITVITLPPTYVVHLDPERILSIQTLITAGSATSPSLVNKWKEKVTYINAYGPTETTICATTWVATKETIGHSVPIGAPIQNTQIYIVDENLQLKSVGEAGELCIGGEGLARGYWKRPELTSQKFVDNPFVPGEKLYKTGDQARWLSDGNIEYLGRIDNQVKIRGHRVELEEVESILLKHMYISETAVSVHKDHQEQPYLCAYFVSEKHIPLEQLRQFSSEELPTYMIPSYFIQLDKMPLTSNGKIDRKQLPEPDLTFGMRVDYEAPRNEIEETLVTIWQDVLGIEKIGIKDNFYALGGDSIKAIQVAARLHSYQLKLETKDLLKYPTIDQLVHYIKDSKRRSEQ", "assay": "Fluorescence dose-response of purified […]-Phe3 with phenylalanine in 100 mM Tris at pH 8.5, room temperature, 1 mM ATP, 2.5 mM MgCl2.", "description": "As cpEGFP is sensitive to pH, we conducted a dose-response curve and fluorescence intensity analysis of […]-Phe3 at varying pH levels. […] In addition, we expanded the range of ligand-binding domains (LBDs) applicable to […] and attempted optimization of insertion sites for cpEGFP with limited success. Please refer to Supplemental Note 1 for detailed information.\nThe study conducted dose–response curve, substrate specificity, and fluorescent spectrum analyses in 100-mM Tris buffer (pH = 7.5), while pH stability experiments were performed in 100-mM Tris buffer at three different pH values (6.5, 7.5, and 8.5) at room temperature. […] Fluorescent signals were detected using a Microplate Reader (Synergy H4, Bio Tek) at an excitation/emission wavelength of 460 nm/510 nm or 480 nm/510 nm. The dose-response curve was determined immediately after the addition of the analyte. The total duration of the measurement was 15 min, with readings taken at one-minute intervals. The dose-response curve was plotted using the fluorescence values obtained after achieving stability in the fluorescence signal. […] The thermal stability of […] was analyzed using the UNcle multifunctional protein stability analysis system. […] Absolute fluorescence quantum yields were measured using an absolute photoluminescence quantum yield spectrometer (FS5, Edinburgh). […]"}, "GECFINDER-SβF": {"target": "GECFINDER-SβF", "assay": "Fluorescence dose-response of purified binding-pocket-engineered sensors (0.75 uM) in 100 mM Tris-HCl pH 7.5, room temperature, 1 mM ATP, 2.5 mM MgCl2, excitation 460 or 480 nm, emission 510 nm; logistic five-parameter fit."}, "GECFINDER-Leu3": {"target": "T2, GECFINDER-Leu3 (Aneurinibacillus migulanus, UniProt P0C061, A301G/S447N/T278L)", "T2 construct": "gene grsA", "assay": "Fluorescence dose-response of purified binding-pocket-engineered sensors (0.75 uM) in 100 mM Tris-HCl pH 7.5, room temperature, 1 mM ATP, 2.5 mM MgCl2, excitation 460 or 480 nm, emission 510 nm; logistic five-parameter fit."}, "GECFINDER-Leu4": {"target": "T3, GECFINDER-Leu4 (Aneurinibacillus migulanus, UniProt P0C061, A301G/I277L/S447N/T278L)", "T3 construct": "gene grsA", "assay": "Fluorescence dose-response of purified binding-pocket-engineered sensors (0.75 uM) in 100 mM Tris-HCl pH 7.5, room temperature, 1 mM ATP, 2.5 mM MgCl2, excitation 460 or 480 nm, emission 510 nm; logistic five-parameter fit."}, "GECFINDER-Leu2": {"target": "T4, GECFINDER-Leu2 (Aneurinibacillus migulanus, UniProt P0C061, A301G/I277L/T278L)", "T4 construct": "gene grsA", "assay": "Fluorescence dose-response of purified binding-pocket-engineered sensors (0.75 uM) in 100 mM Tris-HCl pH 7.5, room temperature, 1 mM ATP, 2.5 mM MgCl2, excitation 460 or 480 nm, emission 510 nm; logistic five-parameter fit."}, "GECFINDER-Tyr": {"target": "T5, GECFINDER-Tyr (Aneurinibacillus migulanus, UniProt P0C061, W239S)", "T5 construct": "gene grsA", "assay": "Fluorescence dose-response of purified binding-pocket-engineered sensors (0.75 uM) in 100 mM Tris-HCl pH 7.5, room temperature, 1 mM ATP, 2.5 mM MgCl2, excitation 460 or 480 nm, emission 510 nm; logistic five-parameter fit."}}}
{"smiles": "N[C@@H](Cc1ccccc1)C(=O)O", "note": "[Phe, phenylalanine]", "values": [{"measurement": "EC50", "setting": "GECFINDER-Phe3", "result": 2.38, "unit": "µM"}, {"measurement": "EC50", "setting": "GECFINDER-SβF", "result": "234 ± 23.7", "unit": "µM"}, {"measurement": "EC50", "setting": "GECFINDER-Leu3", "result": "392 ± 51.8", "unit": "µM"}, {"measurement": "EC50", "setting": "GECFINDER-Leu4", "result": "158 ± 22.6", "unit": "µM"}, {"measurement": "EC50", "setting": "GECFINDER-Leu2", "result": "606 ± 407", "unit": "µM"}, {"measurement": "EC50", "setting": "GECFINDER-Tyr", "result": "258 ± 37.3", "unit": "µM"}]}
